Values after ≈ are worked out from the molar mass of the structure shown. Like-named read-outs stand apart in the source and are kept apart here.
Assays:
E. Coli = assay: Minimum inhibitory concentration, E. Coli (Gram negative); format: cell-based; settings: Escherichia coli
Method: (§1) The minimum inhibitory concentrations (MIC) against different Gram positive and Gram negative microorganisms, and fungi, were determined and the results are shown in Table 2 below.

[1] = Solubility in Water (Table 1); format: physicochemical
Description: The results in Table I below illustrates the water solubility of the free base and hydrochloride salts of the invention versus chlorhexidine.

Staph. aur. = assay: Minimum inhibitory concentration, Staph. aur. (Gram positive); format: cell-based
Method: as §1

Strept. py. = assay: Minimum inhibitory concentration, Strept. py. (Gram positive); format: cell-based
Method: as §1

Fungi = assay: Minimum inhibitory concentration, Fungi; format: cell-based
Method: as §1

Ps. aer. = assay: Minimum inhibitory concentration, Ps. aer. (Gram negative); format: cell-based
Method: as §1

bacteria = settings: cited from earlier work
[2] = cited from earlier work
[3] = cited from earlier work; remark: listed apart in the source
bacterial spores = settings: room temperature; cited from earlier work
[4] = HCl salt, pH 5.5, read-out: Solubility in water, HCl Salt (pH 5.5)
[5] = free base, pH 8.5, read-out: Solubility in water, Free Base (pH 8.5)

Structure (SMILES) | MIC (E. Coli) [µg/mL] | solubility [1, 4] [mg/mL] | solubility [1, 5] [mg/mL] | MIC (Staph. aur.) [µg/mL] | MIC (Strept. py.) [µg/mL] | MIC (Fungi) [µg/mL] | MIC (Ps. aer.) [µg/mL] | antibacterial activity at low pH (bacteria; pH below 5) | antibacterial activity, pH dependence (bacteria; pH range 5-8) | water solubility for the free base [2] | compatibility in formulations containing surface active agents [3] | activity against bacterial spores (bacterial spores)
N=C(NCCCCCCNC(=N)NC(=N)NCCN1CCCC1=O)NC(=N)NCCN1CCCC1=O [Ex. 4, 1,6-Bis[1-(2-Pyrrolidonylethyl)biguanido]hexane:2HCl] | 250 | 500 | 50 | ≤ 100 | ≤ 50 | 100 | 250 |  |  |  |  | 
[H]/N=C(\N/C(=N/[H])NCCCCCCNC(=N)NC(=N)Nc1ccc(Cl)cc1)Nc1ccc(Cl)cc1 [Chlorhexidine, 1,6-bis(4-chlorophenylbiguanido)-hexane] |  | 18 | 0.08 (≈ 158 µM) |  |  |  |  | deteriorates | pH dependent | low water solubility | incompatability | inactivity against bacterial spores
N=C(NCCOCCOCCNC(=N)NC(=N)NCCN1CCCC1=O)NC(=N)NCCN1CCCC1=O [Ex. 6, 1,2-Bis[1-(2-pyrrolidonylethyl)-5-(2-Ethoxybiguanido)]ethane:2HCl] | 100 | 500 | 500 | > 500 | ≤ 50 | ≤ 50 | ≤ 100 |  |  |  |  | 
N=C(NCCCCCCCCCCCCNC(=N)NC(=N)NCCN1CCCC1=O)NC(=N)NCCN1CCCC1=O [Ex. 5, 1,12-Bis[1-(2-Pyrrolidonylethyl)biguanido]dodecane:2HCl] | 250 | 500 | 20 | ≤ 50 | ≤ 50 | ≤ 50 | > 500 |  |  |  |  | 
N=C(NCCCCCCNC(=N)NC(=N)Nc1ccc(Cl)cc1)NC(=N)Nc1ccc(Cl)cc1 [Chlorhexidine gluconate, reference compound] | 5 |  |  | 2.5 | 5 | > 200 | 50 |  |  |  |  | 
